In patent US4876346A, “Quinoline compounds” (American Home Products Corporation, priority 1986, dated 1989):
Counter-ions that a name gives are not always drawn. Like-named read-outs stand apart in the source and are kept apart here.

Tests used:
[1] = system: LTD4 induced bronchoconstriction; experiment: In vivo inhibition of bronchospasm induced in guinea pigs by exogenously administered leukotrienes (Example 11); design: species or system guinea pig (male Hartley); conditions: 10 minutes before induction of bronchospasm (LTD4), guinea pig; for inhibition in vivo at 25 mg/kg / inhibition in vivo at 50 mg/kg: Cavia porcellus, read-out: % Inhibition of Max AUC
[2] = system: 5-HETE synthesis by rat glycogen elicited polymorphonuclear leukocytes; experiment: Inhibition of synthesis of 5-HETE by rat glycogen elicited polymorphonuclear leukocytes (Example 10); assay type: cell-based, rat (female Wistar); conditions: Leukocyte, [14C]5-HETE synthesis, rat PMN; for IC50: read-out: 50% Inhibitory Concentration (IC50)
Procedure: (§1) The assay is carried out as follows:
Peritoneal PMN are obtained from female Wistar rats (150-250 g) that received an i.p. injection of 6% glycogen (10 ml). After 24 hours, rats are killed by CO2 asphyxiation and peritoneal cells are harvested by peritoneal lavage using Ca^++ and Mg^++ free Hanks' balanced salt solution (HBSS). The peritoneal exudate is centrifuged at 400 g for 10 minutes. After centrifugation, the lavaged fluid is removed and the cell pellet is […] in HBSS containing Ca^++ and Mg^++ and 10 mM L-cystein at a concentration of 2×10^7 cells/ml. To 1 ml portions of cell suspens, test drugs or vehicle are added and incubated at 37° C. for 10 minutes. Following this preincubation, the calcium ionophore (10 μM), A23187, is added together with 0.5 μCi [^14 C] arachidonic acid and further incubated for 10 minutes. The reaction is stopped by the addition of ice cold water (3 ml) and acidifying to pH 3.5. Lipoxygenase products are then extracted twice into diethyl ether. The pooled ether extracts are evaporated to dryness under nitrogen and the residue is redissolved in a small volume of methanol and spotted on aluminum backed pre-coated thin layer chromatographic plates. The samples are then co-chromatographed with authentic reference 5-HETE in the solvent system--hexane:ether:acetic acid (50:50:3). After chromatography, the areas associated with 5-HETE standard are identified by autoradiography, cut out and quantitated by liquid scintillation.
Results are expressed as % inhibition of [^14 C]5-HETE synthesis. [formula]

[3] = system: ovalbumin induced bronchospasm; experiment: In vivo inhibition of ovalbumin induced bronchospasm in sensitized guinea pigs mediated by endogenous mediators (Example 12); design: species or system guinea pig (male Hartley); conditions: Cavia porcellus, 10 minutes before ovalbumin challenge, guinea pig, read-out: % Inhibition of Max AUC
Procedure: The assay of this Example measures the in vivo ability of the compounds of the invention to inhibit the bronchospasm induced in guinea pigs by endogenous mediators of the bronchoconstriction.
as §1
Male Hartley strain guinea pigs weighing 250-350 g are sensitized to chicken ovalbumin (OA) (10 mg i.p.) on days 1 and 3 and used starting on day 26. The animals are anesthetized with pentobarbital sodium (50 mg/kg, i.p.), bilateral vagotomy is performed, and the jugular vein is cannulated for injection of drugs and the carotid artery for monitoring blood pressure. The trachea is cannulated for artificial ventilation by miniature Starling pump and for indirect measurement of respiratory volume changes as described, infra. Succinylcholine (2 mg/kg, i.v.) is administered to arrest spontaneous respiration. A cyclooxygenase inhibitor, indomethacin (10 mg/kg in tris buffer, i.v. at 9 min.) is administered to shunt arachidonic metabolism to lipoxygenase pathways. One minute later, chlorpheniramine (1.0 mg/kg in saline, i.v.) is given to attenuate the histaminic component of anaphylactic bronchoconstriction. Test drugs (dissolved in propylene glycol, polyethylene glycol or saline) are administered either intraduodenally or by aerosol at 2 or 10 minutes before antigen challenge. Anaphylactic bronchoconstriction is induced by administration by breaths of aerosolized OA (1%) or by intravenous administration of 0.1-0.3 mg/kg OA in saline. Control animals receive solvent (2 ml/kg i.d. or appropriate aerosol) in place of drug.
Respiratory volume changes are determined by a calibrated piston whose travel is recorded, via a linear transducer, on a Beckman Dynograph recorder. Maximal bronchoconstrictor volume is determined by clamping off the trachea at the end of the experiment. Overflow volumes at minutes 1, 3 and 5 are obtained from the recorded charts.
Area under the volume overflow curve (AUC) is estimated, using the overflow values at 1, 3 and 5 minutes, and expressed as a percentage of the maximal overflow AUC (equation 1): [formula] Drug effects are reported as percent inhibition of % max AUC values obtained from appropriate control animals (equation 2): [formula] Students t-test for unpaired data is used to determine statistical significance. Dose response curves are generated and ED50 doses are interpolated from the regression lines.
Results for compounds of the invention in this assay, using LTD4 for induction of bronchospasm, are given below: […]

Question: For `CCOC(=O)CC(=O)NCC(O)c1cccc(OCc2ccc3ccccc3n2)c1` (racemic) [Example 7C, 3-[[2-Hydroxy-2-[3-(2-quinolinylmethoxy)phenyl]ethyl]amino]-3-oxopropanoicacid, ethyl ester], which inhibition in vivo at 25 mg/kg ([1]; 25 mg/kg intraduodenal) is on record?
Answer: Its inhibition in vivo at 25 mg/kg is 24.9%.

Question: `CCN(CC)C(=O)N(C)C[C@H](O)c1cccc(OCc2nc3ccccc3s2)c1` [Example 1, (1R)-1-[3-[(2-Benzthiazoyl)-methoxy]phenyl]-2-(N-methyl-N-diethylcarbamoyl)amino ethanol] was tested. Which inhibition at 50 µM [2] did it give?
Answer: The inhibition at 50 µM was greater than 50%.

Question: What about the IC50 [2] of the same compound?
Answer: The IC50 was 40.4 µM.

Question: What about the inhibition in vivo at 50 mg/kg ([1]; 50 mg/kg intraduodenal) of the same compound?
Answer: The inhibition in vivo at 50 mg/kg was 59.2%.

Question: What does the source list for `CCN(CC)C(=O)N(C)C[C@H](O)c1cccc(OCc2nc3ccccc3n2C)c1` [Example 2A, (1R)-1-[3-[(1-Methyl-2-benzimidazoyl)methoxy]phenyl]-2-(N-methyl-N-diethylcarbamoyl)amino ethanol]?
Answer: inhibition at 50 µM [2]: > 50%; IC50 [2]: 16.4 µM; inhibition in vivo at 50 mg/kg ([1]; 50 mg/kg intraduodenal): 77.2%; inhibition in vivo at 50 mg/kg ([3]; 50 mg/kg intraduodenal): 83.4%

Question: For `CCN(CC)C(=O)N(C)C[C@H](O)c1cccc(OCc2ccc3ccccc3n2)c1` [Example 2B, (1R)-1-[3-[(2-Quinolinyl)methoxy]phenyl]-2-(N-methyl-N-diethylcarbamoyl)amino ethanol], which inhibition in vivo at 50 mg/kg ([3]; 50 mg/kg intraduodenal) is on record?
Answer: Its inhibition in vivo at 50 mg/kg is 75.8%.

Question: What does the source list for `CCC(=O)N(C)C[C@H](O)c1cccc(OCc2nc3ccccc3n2C)c1` [Example 2C, (1R)-1-[3-[(1-Methyl-2-benzimidazoyl)methoxy]phenyl]-2-(N-methyl-N-propanoyl)amino ethanol]?
Answer: inhibition at 50 µM [2]: < 50%; inhibition in vivo at 50 mg/kg ([1]; 50 mg/kg intraduodenal): 63.9%; inhibition in vivo at 50 mg/kg ([3]; 50 mg/kg intraduodenal): 65.6%

Question: With `CN(C[C@H](O)c1cccc(OCc2ccc3ccccc3n2)c1)C(=O)c1ccncc1` [Example 2D, (1R)-1-[3-[(2-Quinolinyl)methoxy]phenyl]-2-[N-methyl-N-(4-pyridinoyl)]amino ethanol] as the compound, how does the inhibition at 50 µM [2] read?
Answer: Its inhibition at 50 µM is less than 50%.

Question: And the inhibition in vivo at 50 mg/kg ([1]; 50 mg/kg intraduodenal)?
Answer: The inhibition in vivo at 50 mg/kg was 43.9%.

Question: With `CN(C[C@H](O)c1cccc(OCc2ccc3ccccc3n2)c1)C(=O)N(c1ccccc1)c1ccccc1` [Example 2E, (1R)-1-[3-[(2-Quinolinyl)methoxy]phenyl]-2-(N-methyl-N-diphenylcarbamoyl)amino ethanol, hydrochloride] as the compound, how does the inhibition at 50 µM [2] read?
Answer: The inhibition at 50 µM was greater than 50%.

Question: What about the inhibition in vivo at 50 mg/kg ([1]; 50 mg/kg intraduodenal) of the same compound?
Answer: The inhibition in vivo at 50 mg/kg was 21%.

Question: Which inhibition at 50 µM [2] does the source give for `CN(C)C(=O)N(C)C[C@H](O)c1cccc(OCc2ccc3ccccc3n2)c1` [Example 2F, (1R)-1-[3-[(2-Quinolinyl)methoxy]phenyl]-2-(N-methyl-N-dimethylcarbamoyl)amino ethanol] here?
Answer: Its inhibition at 50 µM is greater than 50%.

Question: What about the inhibition in vivo at 50 mg/kg ([1]; 50 mg/kg intraduodenal) of the same compound?
Answer: The inhibition in vivo at 50 mg/kg was 92.6%.

Question: Which results are given for `CCN(CC)C(=O)N(CC)C[C@H](O)c1cccc(OCc2ccc3ccccc3n2)c1` [Example 2G, (1R)-1-[3-[(2-Quinolinyl)methoxy]phenyl]-2-(N-ethyl-N-diethylcarbamoyl)amino ethanol]?
Answer: inhibition at 50 µM [2]: > 50%; inhibition in vivo at 50 mg/kg ([1]; 50 mg/kg intraduodenal): 65.1%

Question: With `CN(C)S(=O)(=O)N(C)C[C@H](O)c1cccc(OCc2ccc3ccccc3n2)c1` [Example 2H, (1R)-1-[3-[(2-Quinolinyl)methoxy]phenyl]-2-(N-methyl-N-dimethylsulfamoyl)amino ethanol] as the compound, how does the inhibition in vivo at 50 mg/kg ([1]; po, 50 mg/kg peroral) read?
Answer: The inhibition in vivo at 50 mg/kg was 25.4%.

Question: And the inhibition in vivo at 50 mg/kg ([1]; 50 mg/kg intraduodenal)?
Answer: Its inhibition in vivo at 50 mg/kg is 56%.

Question: And the inhibition in vivo at 50 mg/kg ([3]; 50 mg/kg intraduodenal)?
Answer: The inhibition in vivo at 50 mg/kg was 2.5%.

Question: Which inhibition in vivo at 50 mg/kg ([1]; 50 mg/kg intraduodenal) does the source give for `COC(=O)[C@@H]1CCCN1C(=O)N(C)C[C@H](O)c1cccc(OCc2ccc3ccccc3n2)c1` [Example 2I, (S)-1-[[[(R)-2-Hydroxy-2-[3-(2-quinolinylmethoxy)phenyl]ethyl]methylamino]carbonyl]-2-pyrrolidine carboxylic acid, methyl ester, hydrochloride] here?
Answer: The inhibition in vivo at 50 mg/kg was 71.2%.

Question: And the inhibition in vivo at 50 mg/kg ([3]; 50 mg/kg intraduodenal)?
Answer: The inhibition in vivo at 50 mg/kg was 22.5%.

Question: Which inhibition in vivo at 25 mg/kg ([3]; 25 mg/kg intraduodenal) does the source give for `CCN(CC)C(=O)N(C)C[C@@H](O)c1cccc(OCc2ccc3ccccc3n2)c1` [Example 2J, (1S)-1-[3-[(2-Quinolinyl)methoxy]phenyl]-2-(N-methyl-N-diethylcarbamoyl)amino ethanol] here?
Answer: Its inhibition in vivo at 25 mg/kg is 81.2%.

Question: Which inhibition in vivo at 50 mg/kg ([1]; 50 mg/kg intraduodenal) does the source give for `CCOC(=O)N(C)C[C@H](O)c1cccc(OCc2ccc3ccccc3n2)c1` [Example 2K, (1R)-1-[3-[(2-Quinolinyl)methoxy]phenyl]-2-(N-methyl-N-ethylcarboxylate)amino ethanol] here?
Answer: Its inhibition in vivo at 50 mg/kg is 70.6%.

Question: For `CCOC(=O)NCC(O)c1cccc(OCc2ccc3ccccc3n2)c1` (stereo not shown) [Example 2L, 1-[3-[(2-Quinolinyl)methoxy]phenyl]-2-(N-ethylcarboxylate)amino ethanol], which inhibition in vivo at 25 mg/kg ([1]; 25 mg/kg intraduodenal) is on record?
Answer: Its inhibition in vivo at 25 mg/kg is 35.6%.

Question: Which results are given for `CCNC(=O)N(C)C[C@H](O)c1cccc(OCc2ccc3ccccc3n2)c1` [Example 3]?
Answer: inhibition in vivo at 25 mg/kg ([1]; 25 mg/kg intraduodenal): 94.9%; inhibition in vivo at 50 mg/kg ([1]; 50 mg/kg intraduodenal): 81.7%; inhibition in vivo at 50 mg/kg ([3]; po, 50 mg/kg peroral): 46.4%

Question: For `CCNC(=O)O[C@@H](CN(C)C(=O)NCC)c1cccc(OCc2ccc3ccccc3n2)c1` [Example 5, Ethylcarbamic acid (1R)-2-[[(ethylamino)carbonyl]methylamino]-1-[3-(2-quinolinylmethoxy)phenyl]ethyl ester, hydrochloride], which inhibition in vivo at 50 mg/kg ([1]; po, 50 mg/kg peroral) is on record?
Answer: Its inhibition in vivo at 50 mg/kg is 18.6%.

Question: And the inhibition in vivo at 50 mg/kg ([1]; 50 mg/kg intraduodenal)?
Answer: Its inhibition in vivo at 50 mg/kg is 54.2%.

Question: And the inhibition in vivo at 50 mg/kg ([3]; 50 mg/kg intraduodenal)?
Answer: Its inhibition in vivo at 50 mg/kg is 80.2%.

Question: Which inhibition in vivo at 25 mg/kg ([1]; 25 mg/kg intraduodenal) does the source give for `O=C(NCC(O)c1cccc(OCc2ccc3ccccc3n2)c1)c1ccccn1` (stereo not shown) [Example 6, N-[2-Hydroxy-2-[3-(2-quinolinylmethoxy)phenyl]ethyl]-2-pyridine carboxamide] here?
Answer: The inhibition in vivo at 25 mg/kg was 19.8%.

Question: `O=C(NCC(O)c1cccc(OCc2ccc3ccccc3n2)c1)c1cccs1` (stereo not shown) [Example 7B, N-[2-Hydroxy-2-[3-(2-quinolinylmethoxy)phenyl]ethyl]-2-thiophene carboxamide] was tested. Which inhibition in vivo at 25 mg/kg ([1]; 25 mg/kg intraduodenal) did it give?
Answer: Its inhibition in vivo at 25 mg/kg is 81.9%.

Question: `C#CCN(C)C[C@H](O)c1cccc(OCc2ccc3ccccc3n2)c1` [Example 8, α-[[Methyl-(2-propynyl)amino]methyl]-3-(2-quinolinylmethoxy)benzene methanol] was tested. Which inhibition in vivo at 25 mg/kg ([1]; 25 mg/kg intraduodenal) did it give?
Answer: Its inhibition in vivo at 25 mg/kg is 41.2%.

Question: For `O=S(=O)(NCC(O)c1cccc(OCc2ccc3ccccc3n2)c1)C(F)(F)F` (stereo not shown) [Example 9, 1,1,1-Trifluoro-N-[2-hydroxy-2-[3-(2-quinolinylmethoxy)phenyl]ethyl]methanesulfonamide], which inhibition in vivo at 25 mg/kg ([1]; po, 25 mg/kg peroral) is on record?
Answer: Its inhibition in vivo at 25 mg/kg is 75.6%.

Question: What about the inhibition in vivo at 25 mg/kg ([1]; 25 mg/kg intraduodenal) of the same compound?
Answer: The inhibition in vivo at 25 mg/kg was 84.8%.

Question: With “N-[2-Hydroxy-2-[3-(2-quinolinyl)phenyl]ethyl]benzamide [Example 7A]” as the compound, how does the “% Inhibition of Max AUC” value ([1]; 25 mg/kg intraduodenal) read?
Answer: The value was 18.1%.
